{
  "source": "patent CN109329202A",
  "about": "“一种有效抑制n-羟乙酰神经氨酸合成的方法” (Guizhou University, priority 2018, dated 2019)",
  "system": "Neu5Gc synthesis [Neu5Gc的合成]",
  "assay": "Neu5Gc degradation in rat muscle, liver and kidney after 30 d oral gavage (HPLC after DMB derivatisation)",
  "format": "in vivo",
  "conditions": "male SD rats, oral gavage 200 mg/(kg.d) in 0.5% sodium carboxymethylcellulose, vs blank control (HPLC peak area)",
  "data": [
    {"smiles": "O=c1c(O)c(-c2ccc(O)cc2)oc2cc(O)cc(O)c12", "note": "[山奈酚]", "values": [
      {"measurement": "Neu5Gc degradation rate, kidney sample", "setting": "kidney", "result": 17.55, "unit": "%"},
      {"measurement": "Neu5Gc degradation rate, liver sample", "setting": "liver", "result": 6.315, "unit": "%"},
      {"measurement": "Neu5Gc degradation rate, meat sample", "setting": "thigh muscle", "result": 13.356, "unit": "%"}
    ]}
  ]
}
